Measurements as given in article PMC9227536, “Prediction of Pharmacokinetics of IDP-73152 in Humans Using Physiologically-Based Pharmacokinetics” (Pharmaceutics, 2022).
Where two headings read alike, the source gives them in different places.

Columns and labels:
[1] = PBPK model prediction, dogs
From the text: (§1) In this study, the PBPK model involving ten tissues (i.e., adipose tissue, brain, heart, kidney, liver, lung, muscle, skin, spleen, and testis (Figure 2; see Appendix A for detailed mathematical descriptions)) was considered to be applicable for the description of IDP-73152 PK in rats, mice, dogs, and humans. Physiological variables were obtained from the literature; they are summarized in Supplementary Table S1.
(§2) For the estimation of the volume of the distribution of IDP-73512 in rats, the steady-state volume of distribution (Vss) was calculated using the following equation [30]:(10) Vss=VP+Vrbc×EP+∑VT,i×KP,ss,i, where Vp, Vrbc, and VT,i are the volumes of plasma, red blood cells, and tissues, respectively. The erythrocyte-to-plasma partition coefficient (EP), is calculated by EP=1+(BP−1)/Hematocrit . The KP,ss for each tissue obtained from Equation (8) was applied for Equation (10). For the case of non-eliminating organs, the KP,ss was regarded as the tissue-to-plasma partition coefficient (KP) in PBPK equations (Appendix A). For the case of the liver—i.e., the eliminating organ—the KP,ss (KP,ss,LI) had to be corrected to account for the equilibrium being altered by the elimination. Thus, a PBPK-operative KP for liver (KP,LI) was calculated using the following equation [31]:(11) KP,LI=KP,ss,LI/(1−ER), where ER is the hepatic extraction ratio of the compound (i.e., CLh/(QLI·BP)). In this study, a compartmental absorption and transit (CAT) model consisting of stomach and five intestinal segments was considered for the description of the intestinal absorption kinetics of IDP-73152 in animals and humans. We assumed that the initial compartment denoted the stomach (Equation (12)), and the subsequent three compartments represented the small intestine and two additional compartments for the large intestine (i.e., a total of six compartments, with absorption occurring in the five intestinal compartments) (Equation (13)). The differential equations describing the rate of drug absorption and transit in the gastrointestinal tract can be written as:
(§3) For the intestine, viz. i = 1~5:(13) dMi/dt=Kt,i−1×Mi−1−(Kt,i+ka,i)×Mi, where Ms is the amount of drug in the stomach; Mi is the amount of drug in the i-th intestinal segment; Ks, Kt,i, and ka,i are the rate constants of gastric emptying, intestinal transit, and the segmental absorption rate, respectively. In Equation (13) at i = 1, Kt,0 and M0 represent Ks and Ms, respectively. […] The absorption rate constant in the intestinal segments in humans, ka,i,human, was assumed to be identical along the segments and calculated as follows: first, Peff was empirically estimated from the Caco-2 cell permeability (Papp):(14) LogPeff=0.4926×LogPapp−0.1454 […]

[2] = PBPK model prediction, mice
From the text: as §1, §2, §3

[3] = PBPK model prediction, rats
From the text: as §1
In addition, from metabolic stability studies, it was evident that IDP-73152 was metabolically unstable in the incubations containing liver microsomes (from all species)/hepatocytes (from rats) and in the rat plasma. […] Accordingly, during model development, we initially assumed that IDP-73152 was entirely eliminated by the metabolism in the liver (namely, CLh) and in the blood (namely, CLblood) in rats: For other species (i.e., mice, dogs, and humans), the elimination was assumed to be primarily mediated by metabolism in the liver. From the results of in vitro metabolic stability studies, the hepatic clearance (CLh) in rats was estimated under the assumption that the well-stirred liver model was adequate for IDP-73152 [29]:(9) CLh=QLI×BP×fu,p×CLu,int,H/QLI×BP+fu,p×CLu,int,H, where QLI, and fu,p represent the liver blood flow and the unbound fraction of IDP-73152 in the plasma, respectively.
as §2, with “The differential equations describing the rate of drug absorption and transit in the gastrointestinal tract can be written as:” left out
as §3, with “respectively.” for “respectively. In Equation (13) at i = 1, Kt,0 and M0 represent Ks and Ms, respectively.”

[4] = parameters: method as in PMID 31440032; settings: cited from earlier work; for Observed AUCinf / Observed Cmax: humans, fasting

CC(C)(C)[C@H](NC(=O)[C@H](CC1CCCC1)CN(O)C=O)C(=O)N1CCC(NCc2cc(F)c(F)cc2F)CC1 [IDP-73152]
AUC ratio ([1]; intravenous 10 mg/kg): 1.13 | Cmax ratio without the scaling (SF) ([1]; oral): 0.760 | AUC ratio ([1]; oral 20 mg/kg): 1.08 | Cmax ratio ([1]; oral 20 mg/kg): 0.832 | AUC ratio ([2]; intravenous 10 mg/kg): 1.15 | Cmax ratio without the scaling (SF) ([2]; oral): 1.72 | AUC ratio ([2]; oral 20 mg/kg): 0.880 | Cmax ratio ([2]; oral 20 mg/kg): 0.906 | AUC ratio (Predicted AUCinf/Observed AUCinf) ([3]; intravenous 2.5 mg/kg): 1.09 | AUC ratio (Predicted AUCinf/Observed AUCinf) ([3]; intravenous 10 mg/kg): 1.14 | Cmax ratio without the scaling (SF) ([3]; oral): 2.36 | AUC ratio (Predicted AUCinf/Observed AUCinf) ([3]; oral 20 mg/kg): 1.03 | Cmax ratio (Predicted Cmax/Observed Cmax) ([3]; oral 20 mg/kg): 1.02 | adverse effects ([4]; human subjects, single oral dose of 40–1280 mg): without clinically significant adverse effects | Observed AUCinf ([4]; single oral 640 mg): 43400 ± 4470 ng·h/mL | Observed Cmax ([4]; single oral 640 mg): 8920 ± 1170 ng/mL | Observed AUCinf ([4]; single oral 1280 mg): 77400 ± 15400 ng·h/mL | Observed Cmax ([4]; single oral 1280 mg): 13200 ± 2500 ng/mL
